Reference: ChEMBL document CHEMBL5143517, “Discovery and radiosensitization research of ursolic acid derivatives as SENP1 inhibitors” (Eur J Med Chem, 2022)
The source made the active and inactive calls.

Key:
[1] = test system: HeLa; assay: Radiosensitizing activity against human HeLa cells assessed as average lethal dose at 5 uM pretreated for 24 hrs followed by exposure to 2 to 8 Gy gamma irradiation and measured after 2 weeks by crystal violet staining based analysis (reference value: 1.47 Gy); format: functional
[2] = Cytotoxicity against human HeLa cells assessed as inhibition of cell growth incubated for 72 hrs by CCK-8 assay; format: toxicity, cell-based
[3] = test system: HeLa; assay: Radiosensitizing activity against human HeLa cells assessed as reduction in cell survival fractions at 5 uM pretreated for 24 hrs followed by exposure to 4 to 8 Gy gamma irradiation and measured after 2 weeks by crystal violet staining based analysis; format: functional
[4] = test system: HeLa; assay: Radiosensitizing activity against human HeLa cells assessed as quasi-threshold dose at 5 uM pretreated for 24 hrs followed by exposure to 2 to 8 Gy gamma irradiation and measured after 2 weeks by crystal violet staining based analysis (reference value: 1.72 Gy); format: functional
[5] = molecular target: T1, Sentrin-specific protease 1 (Homo sapiens, UniProt Q9P0U3); assay: Inhibition of recombinant human SENP1 catalytic domain using RanGAP1 as substrate preincubated for 10 mins followed by substrate addition and measured after 30 mins by Western blot analysis
T1 sequence (Q9P0U3 whole entry): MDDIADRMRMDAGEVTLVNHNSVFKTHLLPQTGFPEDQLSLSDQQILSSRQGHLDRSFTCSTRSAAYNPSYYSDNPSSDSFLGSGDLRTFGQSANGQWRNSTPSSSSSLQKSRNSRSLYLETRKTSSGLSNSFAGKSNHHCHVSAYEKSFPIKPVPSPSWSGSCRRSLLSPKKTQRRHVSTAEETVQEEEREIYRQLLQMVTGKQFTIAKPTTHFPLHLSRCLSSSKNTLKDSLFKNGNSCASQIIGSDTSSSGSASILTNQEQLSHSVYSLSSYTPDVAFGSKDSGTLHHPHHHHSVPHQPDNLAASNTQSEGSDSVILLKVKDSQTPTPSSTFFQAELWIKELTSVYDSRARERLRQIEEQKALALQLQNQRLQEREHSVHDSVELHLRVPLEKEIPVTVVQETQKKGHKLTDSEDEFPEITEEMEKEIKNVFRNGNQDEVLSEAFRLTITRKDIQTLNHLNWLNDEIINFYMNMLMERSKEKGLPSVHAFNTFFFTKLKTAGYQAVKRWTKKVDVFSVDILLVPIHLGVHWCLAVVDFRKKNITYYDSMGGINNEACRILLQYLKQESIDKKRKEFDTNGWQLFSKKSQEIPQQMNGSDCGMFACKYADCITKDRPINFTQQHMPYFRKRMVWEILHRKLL

[6] = test system: HeLa; assay: Radiosensitizing activity against human HeLa cells assessed as radiosensitization enhancement ratio at 5 uM pretreated for 24 hrs followed by exposure to 2 to 8 Gy gamma irradiation and measured after 2 weeks by crystal violet staining based analysis (reference value: 1); format: functional

| Structure (SMILES) | LD [1] [Gy] | IC50 at 72 h [2] [µM] | Activity [3] | LD [4] [Gy] | IC50 [5] [µM] | Ratio [6] |
| --- | --- | --- | --- | --- | --- | --- |
| C[C@H]1[C@H](C)CC[C@]2(C(=O)OCC(=O)O)CC[C@]3(C)C(=CC[C@@H]4[C@@]5(C)CC[C@H](O)C(C)(C)[C@@H]5CC[C@]43C)[C@H]12 | 1.26 | > 20 | Active | 2.07 | – | – |
| C[C@H]1[C@H](C)CC[C@]2(C(=O)O)CC[C@]3(C)C(=CC[C@@H]4[C@@]5(C)CC[C@H](O)C(C)(C)[C@@H]5CC[C@]43C)[C@H]12 [URSOLIC ACID] | 1.2 | – | Active | 1.77 | 2.58 | 1.22 |
| CNC(=O)CNC(=O)[C@]12CC[C@@H](C)[C@H](C)[C@H]1C1=CC[C@@H]3[C@@]4(C)CC[C@H](O)C(C)(C)[C@@H]4CC[C@@]3(C)[C@]1(C)CC2 | 1.02 | > 20 | Active | 1.92 | – | – |
| C[C@H]1[C@H](C)CC[C@]2(C(=O)OCCN3CCN(CCO)CC3)CC[C@]3(C)C(=CC[C@@H]4[C@@]5(C)CC[C@H](O)C(C)(C)[C@@H]5CC[C@]43C)[C@H]12 | – | > 20 | – | – | – | – |
| C[C@H]1[C@H](C)CC[C@]2(C(=O)OCCN3CCOCC3)CC[C@]3(C)C(=CC[C@@H]4[C@@]5(C)CC[C@H](O)C(C)(C)[C@@H]5CC[C@]43C)[C@H]12 | – | > 20 | – | – | – | – |
| C[C@H]1[C@H](C)CC[C@]2(C(=O)NCCBr)CC[C@]3(C)C(=CC[C@@H]4[C@@]5(C)CC[C@H](O)C(C)(C)[C@@H]5CC[C@]43C)[C@H]12 | – | > 20 | – | – | – | – |
| COC(=O)CCNC(=O)[C@]12CC[C@@H](C)[C@H](C)[C@H]1C1=CC[C@@H]3[C@@]4(C)CC[C@H](OC(C)=O)C(C)(C)[C@@H]4CC[C@@]3(C)[C@]1(C)CC2 | – | > 20 | – | – | – | – |
| COC(=O)[C@]12CC[C@@H](C)[C@H](C)[C@H]1C1=CC[C@@H]3[C@@]4(C)CC[C@H](OC(C)=O)C(C)(C)[C@@H]4CC[C@@]3(C)[C@]1(C)CC2 | – | > 20 | – | – | – | – |
